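Protocol summary: plate cells (96-well), add compound at 5 concentrations, incubate 48 h, interpolate endpoints linearly. TGI marks complete inhibition of growth.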
Legend:
Assay in all cases: inhibition of tumour cell growth, NCI panel, 48 h
A498 renal = system: A498 renal
ACHN renal = system: ACHN renal
COLO 205 colon = system: COLO 205 colon
HL-60(TB) leukemia = system: HL-60(TB) leukemia
HS 578T breast = system: HS 578T breast
OVCAR-3 ovarian = system: OVCAR-3 ovarian
OVCAR-8 ovarian = system: OVCAR-8 ovarian
RPMI-8226 leukemia = system: RPMI-8226 leukemia
SF-539 CNS = system: SF-539 CNS
UACC-257 melanoma = system: UACC-257 melanoma

Structure (SMILES) | TGI (A498 renal) | TGI (ACHN renal) | TGI (COLO 205 colon) | TGI (HL-60(TB) leukemia) | TGI (HS 578T breast) | TGI (OVCAR-3 ovarian) | TGI (OVCAR-8 ovarian) | TGI (RPMI-8226 leukemia) | TGI (SF-539 CNS) | TGI (UACC-257 melanoma)
COc1ccc2nc(NC(=O)/C(C#N)=C/c3ccccc3)sc2c1 | > 100 µM | > 100 µM | > 100 µM | 36.7 µM | > 100 µM | > 100 µM | > 100 µM | > 84.5 µM | > 100 µM | > 100 µM
CN1CSC(=S)N(c2cccc(C(F)(F)F)c2)C1 | 82.1 µM | 36.5 µM | 37.2 µM | 59 µM | 82.2 µM | 46.7 µM | 74.5 µM | 39.4 µM | 52 µM | 50.7 µM
Cc1ccc2cccc(-c3cccc4ccccc34)c2n1 | 46 µM | > 100 µM | > 100 µM | 16.3 µM | 81.9 µM | > 100 µM | 57.7 µM | 40.2 µM | > 100 µM | > 100 µM
CC(=O)O[C@@H](c1nccn1Cc1ccccc1)[C@H]1OC(C)(C)O[C@@H]1[C@H]1COC(C)(C)O1 | > 100 µM | > 100 µM | > 100 µM | > 100 µM | > 100 µM | > 100 µM | > 100 µM | > 100 µM | > 100 µM | > 100 µM
CCOC1C=CC(=O)C(CO)O1 (stereo not given) | 49.4 µM | 24.1 µM | 30.4 µM | 20.9 µM | 49 µM | 19.1 µM | 26 µM | 6 µM | 23.8 µM | 19.9 µM
O=C(ON=C1c2ccccc2C(Br)C(Br)c2ccccc21)c1ccccc1 (stereo not given) | 40.9 µM | 33 µM | 36.7 µM | 1.22 µM | 53.6 µM | 28.7 µM | 30.8 µM | 14.7 µM | 13.9 µM | 41.7 µM
CN(O)C(=O)/C=C/c1ccc(OCc2cccc(Cl)c2)cc1 | 66 µM | 29.9 µM | > 100 µM | 52 µM | > 100 µM | > 100 µM | 32.8 µM | 96.9 µM | > 100 µM | > 100 µM
CC1CC(N2CCOCC2)=Nc2ccccc2N1C (stereo not given) | > 100 µM | > 100 µM | > 100 µM | > 100 µM | > 100 µM | > 100 µM | > 100 µM | > 100 µM | > 100 µM | > 100 µM
COc1ccc2ccc3oc(=O)c(C)cc3c2c1 | > 100 µM | > 100 µM | > 100 µM | > 100 µM | > 100 µM | > 100 µM | > 100 µM | > 100 µM | > 100 µM | > 100 µM
CN(C)CCN(c1ccccn1)c1ccccn1 | > 100 µM | > 100 µM | > 100 µM | > 100 µM | > 100 µM | > 100 µM | > 100 µM | > 100 µM | > 100 µM | > 100 µM
NC1=CC(=O)c2c(O)ccc(O)c2C1=O | 47.5 µM | 34.2 µM | 20.9 µM | 6.83 µM | 68.3 µM | 8.45 µM | 33 µM | 44.9 µM | 36 µM | 30.2 µM
O=CC(I)=C(c1ccccc1)c1ccccc1 | 41.8 µM | 38.1 µM | 32.4 µM | 38.6 µM | 63 µM | 17.7 µM | 53.8 µM | > 59 µM | 45.3 µM | 42.3 µM
COc1cccc(C2c3cc4c(cc3OC(O)C2C)OCO4)c1OC (stereo not given) | 16.2 µM | 30.8 µM | 19.7 µM | 4.83 µM | 32.8 µM | 17.9 µM | 18.7 µM | 14.6 µM | 26.8 µM | 37.9 µM
Cc1c2cccc-2c2cc(O)c3ccccc3c2n1-c1ccc(N(C)C)cc1 | 30.7 µM | 24.9 µM | 32.6 µM | > 100 µM | 37.5 µM | 19.1 µM | 33.8 µM | 26.6 µM | 27.9 µM | > 100 µM
